The values below come from patent US20250361230A1, “LATS Inhibitors and Uses Thereof” (The USA, as Represented by the Secretary, Dept. of Heath …, priority 2022, published 2025).

The target in one assay is T1, LATS1 (Homo sapiens, UniProt O95835).
T1 sequence (O95835 1-1130): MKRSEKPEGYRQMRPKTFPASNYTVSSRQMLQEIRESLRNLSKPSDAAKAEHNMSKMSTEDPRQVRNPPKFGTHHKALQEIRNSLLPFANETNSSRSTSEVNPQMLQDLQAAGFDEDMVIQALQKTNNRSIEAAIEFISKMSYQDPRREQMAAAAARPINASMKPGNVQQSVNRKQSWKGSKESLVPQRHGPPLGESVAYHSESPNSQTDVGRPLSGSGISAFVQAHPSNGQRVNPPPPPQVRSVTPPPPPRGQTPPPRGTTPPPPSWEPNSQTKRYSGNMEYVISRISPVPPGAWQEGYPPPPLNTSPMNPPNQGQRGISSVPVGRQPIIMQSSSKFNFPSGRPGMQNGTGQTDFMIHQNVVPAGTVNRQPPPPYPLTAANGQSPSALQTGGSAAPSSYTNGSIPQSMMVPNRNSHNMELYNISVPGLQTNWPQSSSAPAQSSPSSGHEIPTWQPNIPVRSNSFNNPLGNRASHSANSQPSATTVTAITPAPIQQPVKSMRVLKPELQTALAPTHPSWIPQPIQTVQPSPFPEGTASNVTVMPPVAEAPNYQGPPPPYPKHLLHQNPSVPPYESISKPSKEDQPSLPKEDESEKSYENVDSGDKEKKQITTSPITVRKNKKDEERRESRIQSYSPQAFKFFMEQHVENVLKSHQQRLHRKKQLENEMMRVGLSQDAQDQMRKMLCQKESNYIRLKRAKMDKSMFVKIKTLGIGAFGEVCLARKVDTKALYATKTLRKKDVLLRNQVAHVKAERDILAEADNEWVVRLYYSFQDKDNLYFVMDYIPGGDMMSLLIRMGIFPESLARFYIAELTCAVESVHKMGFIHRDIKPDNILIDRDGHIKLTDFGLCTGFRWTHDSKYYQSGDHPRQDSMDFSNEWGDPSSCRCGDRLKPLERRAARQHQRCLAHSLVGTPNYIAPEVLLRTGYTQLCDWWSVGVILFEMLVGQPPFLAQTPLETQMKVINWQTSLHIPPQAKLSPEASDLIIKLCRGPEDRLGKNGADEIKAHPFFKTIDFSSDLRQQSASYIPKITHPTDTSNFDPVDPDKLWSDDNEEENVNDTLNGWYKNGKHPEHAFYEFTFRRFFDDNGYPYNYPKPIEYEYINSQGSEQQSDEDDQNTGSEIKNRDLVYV
Put plainly: RBC HotSpot kinase assay (33P-ATP, P81 filter-binding), LATS1. Type of assay: biochemical. The conditions noted are these: read-out: LATS1 IC50. A digest of the protocol:
(§1)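 Hepes pH 7.5/MgCl2/EGTA/Brij35/BSA/Na3VO4/DTT buffer, cofactors per kinase; cpd acoustically dispensed, 20 min preinc RT; start w/ 33P-ATP, 2 h RT; P81 filter readout; 10-pt singlet IC50.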

The next assay addresses AKT (Homo sapiens, UniProt P31749). Put plainly: RBC HotSpot kinase assay (33P-ATP, P81 filter-binding), AKT. Type of assay: biochemical. The conditions noted are these: read-out: AKT IC50. Summed up:
as §1

[1] abbreviates: Table 28, biochemical kinase assay.
Setting [2] is: Table 32, biochemical kinase assay.

Where two headings read alike, the source gives them in different places.

Sequence of AKT (P31749 whole entry): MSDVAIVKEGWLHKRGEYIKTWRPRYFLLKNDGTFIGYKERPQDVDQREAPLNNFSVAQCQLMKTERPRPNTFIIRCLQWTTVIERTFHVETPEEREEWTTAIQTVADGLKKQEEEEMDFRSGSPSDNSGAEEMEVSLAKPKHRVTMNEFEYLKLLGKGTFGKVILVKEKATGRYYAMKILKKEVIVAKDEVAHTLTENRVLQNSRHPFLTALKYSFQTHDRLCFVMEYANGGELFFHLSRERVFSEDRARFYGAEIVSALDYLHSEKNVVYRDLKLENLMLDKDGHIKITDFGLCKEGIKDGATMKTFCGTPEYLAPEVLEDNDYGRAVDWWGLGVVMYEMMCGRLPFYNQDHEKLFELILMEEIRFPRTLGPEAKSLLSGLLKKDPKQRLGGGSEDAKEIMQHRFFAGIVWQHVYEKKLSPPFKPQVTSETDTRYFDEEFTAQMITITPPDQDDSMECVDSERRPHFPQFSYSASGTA

The term IC50 denotes the concentration that inhibits the measured activity by half. In the case of `Cc1cc(-c2ccnc3[nH]cc(F)c23)cc(F)c1[C@@]1(O)[C@H](C)CN(C(=O)[C@@H](CO)N(C)C)C[C@@H]1C` [Compound 313, (R)-2-(dimethylamino)-1-((3S,4S,5R)-4-(2-fluoro-4-(3-fluoro-1H-pyrrolo[2,3-b]pyridin-4-yl)-6-methylphenyl)-4-hydroxy-3,5-dimethylpiperidin-1-yl)-3-hydroxypropan-1-one], the IC50 was determined as 4.4 nM at LATS1 (setting [1]) and 312 nM on AKT (setting [1]).
As for `OC1(c2ccc(-c3ccnc4[nH]cc(F)c34)cc2)CC2(CNC2)C1` [Compound 319, 6-(4-(3-fluoro-1H-pyrrolo[2,3-b]pyridin-4-yl)phenyl)-2-azaspiro[3.3]heptan-6-ol], the IC50 on LATS1 (setting [1]) was found to be 66 nM; at AKT (setting [1]), 378 nM.
As to `NCC(O)(c1ccc(Cl)cc1)c1ccc(-c2ccnc3[nH]ccc23)cc1` (centres unmarked) [Compound 1001, 1-(4-(1H-pyrrolo[2,3-b]pyridin-4-yl)phenyl)-2-amino-1-(4-chlorophenyl)ethan-1-ol], the IC50 turned out to be 1.8 nM on LATS1 (setting [2]) and 0.6 nM at AKT (setting [2]).
In the case of `NCC(O)(c1ccc(Cl)cc1)c1ccc(-c2ccnc3[nH]cc(F)c23)cc1` (centres unmarked) [Compound 1002, 2-amino-1-(4-chlorophenyl)-1-(4-(3-fluoro-1H-pyrrolo[2,3-b]pyridin-4-yl)phenyl)ethan-1-ol], the IC50 at LATS1 (setting [2]) turned out to be 5.7 nM; on AKT (setting [2]), 4.6 nM.
Regarding `COC(=O)c1c[nH]c2nccc(-c3ccc(C(O)(CN)c4ccc(Cl)cc4)cc3)c12` (centres unmarked) [Compound 1004, Methyl 4-(4-(2-amino-1-(4-chlorophenyl)-1-hydroxyethyl)phenyl)-1H-pyrrolo[2,3-b]pyridine-3-carboxylate], the IC50 at LATS1 (setting [2]) worked out at 4 nM; at AKT (setting [2]), 18.1 nM.
For `NCC(O)(c1ccc(Cl)cc1)c1ccc(-c2ccnc3[nH]cc(Br)c23)cc1` (centres unmarked) [Compound 1005, 2-amino-1-(4-(3-bromo-1H-pyrrolo[2,3-b]pyridin-4-yl)phenyl)-1-(4-chlorophenyl)ethan-1-ol], the figures for the IC50 at LATS1 (setting [2]) and on AKT (setting [2]) were 5.1 nM and 1.7 nM, respectively.
In the case of `NCC(O)(c1ccc(Cl)cc1)c1ccc(-c2ccnc3[nH]cc(-c4ccccc4)c23)cc1` (centres unmarked) [Compound 1006, 2-amino-1-(4-chlorophenyl)-1-(4-(3-phenyl-1H-pyrrolo[2,3-b]pyridin-4-yl)phenyl)ethan-1-ol], the figures for the IC50 on LATS1 (setting [2]) and at AKT (setting [2]) were 23 nM and 230 nM, respectively.
For `NCC(O)(c1ccc(Cl)cc1)c1ccc(-c2ccnc3[nH]cc(-c4cccnc4)c23)cc1` (centres unmarked) [Compound 1007, 2-amino-1-(4-chlorophenyl)-1-(4-(3-(pyridin-3-yl)-1H-pyrrolo[2,3-b]pyridin-4-yl)phenyl)ethan-1-ol], the IC50 at LATS1 (setting [2]) stood at 4.3 nM; at AKT (setting [2]), 35.2 nM.
Regarding `NCC(O)(c1ccc(Cl)cc1)c1ccc(-c2ccnc3[nH]cc(Br)c23)nc1` (centres unmarked) [Compound 1011, 2-amino-1-(6-(3-bromo-1H-pyrrolo[2,3-b]pyridin-4-yl)pyridin-3-yl)-1-(4-chlorophenyl)ethan-1-ol], the IC50 is 0.9 nM on LATS1 (setting [2]) and 1 nM at AKT (setting [2]).
In the case of `NCC(=O)NCC(O)(c1ccc(Cl)cc1)c1ccc(-c2ccnc3[nH]cc(Cl)c23)cc1` (centres unmarked) [Compound 1021, 2-amino-N-(2-(4-(3-chloro-1H-pyrrolo[2,3-b]pyridin-4-yl)phenyl)-2-(4-chlorophenyl)-2-hydroxyethyl) acetamide], the IC50 at LATS1 (setting [2]) is 3.7 nM; at AKT (setting [2]), < 0.5 nM.
Take `Cc1cc(-c2ccnc3[nH]cc(C#N)c23)cc(F)c1[C@@]1(O)[C@H](C)CN(C2CCS(=O)(=O)CC2)C[C@@H]1C` [Compound 2002, 4-(4-((3S,4s,5R)-1-(1,1-dioxidotetrahydro-2H-thiopyran-4-yl)-4-hydroxy-3,5-dimethylpiperidin-4-yl)-3-fluoro-5-methylphenyl)-1H-pyrrolo[2,3-b]pyridine-3-carbonitrile]: the 50% inhibitory concentration (IC50) on LATS1 (biochemical kinase inhibition) amounted to 10.9 nM; on AKT (biochemical kinase inhibition), 188 nM.
Regarding `Cc1cc(-c2ccnc3[nH]cc(C#N)c23)cc(F)c1[C@@]1(O)[C@H](C)CN(C(=O)CN)C[C@@H]1C` [Compound 2004, 4-(3-fluoro-4-((3S,4s,5R)-1-glycyl-4-hydroxy-3,5-dimethylpiperidin-4-yl)-5-methylphenyl)-1H-pyrrolo[2,3-b]pyridine-3-carbonitrile], the IC50 at LATS1 (biochemical kinase inhibition) worked out at 6.7 nM; at AKT (biochemical kinase inhibition) it was 118 nM.
As to `Cc1cc(-c2ccnc3[nH]cc(C#N)c23)ccc1[C@@]1(O)[C@H](C)CN(C(=O)CN)C[C@@H]1C` [Compound 2005, 4-(4-((3S,4s,5R)-1-glycyl-4-hydroxy-3,5-dimethylpiperidin-4-yl)-3-methylphenyl)-1H-pyrrolo[2,3-b]pyridine-3-carbonitrile], the IC50 was 3.3 nM on LATS1 (biochemical kinase inhibition) and 22 nM on AKT (biochemical kinase inhibition).
For the molecule `Cc1cc(-c2ccnc3[nH]cc(C#N)c23)cc(F)c1[C@@]1(O)[C@H](C)CN(C(=O)[C@H](N)CO)C[C@@H]1C` [Compound 2007, 4-(4-((3S,4S,5R)-1-(D-seryl)-4-hydroxy-3,5-dimethylpiperidin-4-yl)-3-fluoro-5-methylphenyl)-1H-pyrrolo[2,3-b]pyridine-3-carbonitrile], the IC50 at LATS1 (biochemical kinase inhibition) turned out to be 8.5 nM; at AKT (biochemical kinase inhibition), 159 nM.
For `Cc1cc(-c2ccnc3[nH]cc(C#N)c23)cc(F)c1[C@@]1(O)[C@H](C)CN(C(=O)[C@](C)(N)CO)C[C@@H]1C` [Compound 2008, 4-(4-((3S,4s,5R)-1-(2-amino-3-hydroxy-2-methylpropanoyl)-4-hydroxy-3,5-dimethylpiperidin-4-yl)-3-fluoro-5-methylphenyl)-1H-pyrrolo[2,3-b]pyridine-3-carbonitrile] the same measures were 5.2 nM and 262 nM.
For `Cc1cc(-c2ccnc3[nH]cc(C#N)c23)cc(F)c1[C@@]1(O)[C@H](C)CN(C(=O)[C@H](C)N)C[C@@H]1C` [Compound 2011, 4-(4-((3S,4R,5R)-1-(L-alanyl)-4-hydroxy-3,5-dimethylpiperidin-4-yl)-3-fluoro-5-methylphenyl)-1H-pyrrolo[2,3-b]pyridine-3-carbonitrile], the half-maximal inhibitory concentration (IC50) amounted to 25 nM on LATS1 (biochemical kinase inhibition) and 1030 nM at AKT (biochemical kinase inhibition).
On to `CNCC(=O)N1C[C@@H](C)[C@](O)(c2c(C)cc(-c3ccnc4[nH]cc(C#N)c34)cc2F)[C@@H](C)C1` [Compound 2012, 4-(3-fluoro-4-((3S,4s,5R)-4-hydroxy-3,5-dimethyl-1-(methylglycyl)piperidin-4-yl)-5-methylphenyl)-1H-pyrrolo[2,3-b]pyridine-3-carbonitrile], for which the 50% inhibitory concentration (IC50) was 5 nM at LATS1 (biochemical kinase inhibition) and 349 nM at AKT (biochemical kinase inhibition).
As for `Cc1cc(-c2ccnc3[nH]cc(C#N)c23)cc(F)c1[C@@]1(O)[C@H](C)CN(C(=O)CNCC(F)(F)F)C[C@@H]1C` [Compound 2014, 4-(3-fluoro-4-((3S,4s,5R)-4-hydroxy-3,5-dimethyl-1-((2,2,2-trifluoroethyl)glycyl)piperidin-4-yl)-5-methylphenyl)-1H-pyrrolo[2,3-b]pyridine-3-carbonitrile], the concentration for half-maximal inhibition (IC50) on LATS1 (biochemical kinase inhibition) was determined as 7.1 nM; on AKT (biochemical kinase inhibition) it was 3010 nM.
For the molecule `Cc1cc(-c2ccnc3[nH]cc(C#N)c23)cc(F)c1[C@@]1(O)[C@H](C)CN(C(=O)[C@@H](C)N)C[C@@H]1C` [Compound 2015, 4-(4-((3S,4S,5R)-1-(D-alanyl)-4-hydroxy-3,5-dimethylpiperidin-4-yl)-3-fluoro-5-methylphenyl)-1H-pyrrolo[2,3-b]pyridine-3-carbonitrile], the figures for the IC50 at LATS1 (biochemical kinase inhibition) and on AKT (biochemical kinase inhibition) were 4 nM and 236 nM, respectively.
